pIC50: −log10 of the molar value. Read-outs that look alike come from different tables or passages of the source. Some results are limits rather than exact numbers.

This assay has as its target T1, viral kinase pUL-97 (Human cytomegalovirus, UniProt P16788).
T1 construct: The pUL-97 gene was cloned into a baculovirus vector; GST (glutathione S-transferase) (N); made in house; host or cells: Sf9 insect cells, baculovirus
The assay is described as follows: UL97 kinase assay on Immobilon plate. Format: biochemical. The following applies: inhibition of UL 97 kinase activity, read-out: Activity Class [A, B, C]. As for the experimental part:
UL97 Kinase-Assay on Immobilon Plate
The effect of pyrazine derivatives of this invention was tested on the activity of the viral kinase pUL-97. This kinase is derived from human cytomegalovirus (HCMV) (M. Marschall et al., Journal of General Virology, 2001, 82, 1439-1450). The pUL-97 gene was cloned into a baculovirus vector in order to produce GST (glutathione S-transferase) fusion protein. Insect cells (Sf9) were infected and GST-UL-97 purified via glutathione affinity columns according to standard procedures.
The pUL-97 kinase reaction was performed as described (M. Marschall et al., Journal of General Virology, 2001, 82, 1439-1450). Briefly, 10 μl Assay buffer (3 μM ATP, 60 μg/ml myelin basic protein (MBP) as substrate), 1.0 μCi γ-[^33P]ATP and 10 μl Basic buffer (20 mM Tris-HCl pH7.5, 0.5 mM MnCl2, 1 mM DTT (Dithiothreitol)) were given to the test tube before adding various concentrations of pyrazine derivatives. The reaction was started by adding 0.2 μl pUL-97 kinase, purified from infected Sf9-insect cells as described above. The total volume was adjusted with Basic buffer to a final volume of 30 μl. The reaction mix was incubated for 1 hr at 30° C. For negative control, 10 μl 0.1M EDTA (Ethylene Diamine tetraacetate) was added to reaction mix before addition of pUL-97 protein kinase. The reaction was stopped by addition of 10 μl 0.1 M EDTA.
Measuring Incorporation of Radioactivity:
The Immobilon plate (Millipore) was rinsed with 50 μl methanol/well. Following addition of 100 μl 0.1 M EDTA, 20 μl of each kinase reaction mix was added to one well of the Immobilon plate. Each well was washed 4× with 250 μl 0.75% phosphoric acid and 1× with 50 μl methanol. After addition of 50 μl scintillation cocktail (Roth, Germany) per well incorporation of radioactivity was measured using a Betareader (Wallac) and enzymatic activity calculated.

The mark [1] stands for this setting: class by IC50 / % inhibition at 10 μM or 100 μM.
The mark [2] stands for this setting: class by IC50 / % inhibition at 10 or 100 μM.

T1 sequence (P16788 whole entry): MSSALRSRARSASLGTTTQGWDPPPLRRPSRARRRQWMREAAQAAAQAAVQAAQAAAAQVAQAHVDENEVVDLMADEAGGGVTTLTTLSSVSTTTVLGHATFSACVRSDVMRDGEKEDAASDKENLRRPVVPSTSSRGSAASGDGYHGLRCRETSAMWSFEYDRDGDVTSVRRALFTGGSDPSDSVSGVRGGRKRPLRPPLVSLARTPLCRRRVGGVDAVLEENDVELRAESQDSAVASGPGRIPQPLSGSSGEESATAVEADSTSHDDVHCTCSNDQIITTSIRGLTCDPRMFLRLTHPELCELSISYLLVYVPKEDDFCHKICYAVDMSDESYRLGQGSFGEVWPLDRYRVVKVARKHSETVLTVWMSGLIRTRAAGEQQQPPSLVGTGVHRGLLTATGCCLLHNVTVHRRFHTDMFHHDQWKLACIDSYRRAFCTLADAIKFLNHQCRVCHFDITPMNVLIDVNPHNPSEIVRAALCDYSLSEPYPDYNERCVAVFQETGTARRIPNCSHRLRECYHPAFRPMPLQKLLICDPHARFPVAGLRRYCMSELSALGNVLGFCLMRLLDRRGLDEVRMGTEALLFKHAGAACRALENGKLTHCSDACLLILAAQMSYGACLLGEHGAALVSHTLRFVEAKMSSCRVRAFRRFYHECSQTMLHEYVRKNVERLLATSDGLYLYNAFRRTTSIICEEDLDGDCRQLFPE

Take `CC(=O)c1cccc(-c2cncc(N3CCN(c4cnccn4)CC3)n2)c1` [compound 312, 1-[3-(2′,3′,5′,6′-Tetrahydro-[2,1′;4′,2″]terpyrazin-6-yl)-phenyl]-ethanone]: under setting [1], the pIC50 was 5.00 to 6.00. With `FC(F)(F)c1cccc(-c2cncc(N3CCN(c4ccncc4)CC3)n2)c1` [compound 32, 4-Pyridin-4-yl-6′-(3-trifluoromethyl-phenyl)-3,4,5,6-tetrahydro-2H-[1,2′]bipyrazinyl], the pIC50 under setting [2] is over 6.00. On the same count and under the same terms, the value for `Cc1ccccc1-c1cncc(N2CCN(c3cccc(Cl)c3)CC2)n1` [compound 82, 4-(3-Chloro-phenyl)-6′-o-tolyl-3,4,5,6-tetrahydro-2H-[1,2′]bipyrazinyl] was 4.00 to 5.00. Regarding `Fc1ccc(-c2cncc(N3CCN(c4cccc(Cl)c4)CC3)n2)cc1Cl` [compound 238, 6′-(3-Chloro-4-fluoro-phenyl)-4-(3-chloro-phenyl)-3,4,5,6-tetrahydro-2H-[1,2′]bipyrazinyl], the pIC50 under setting [1] is 4.00 to 5.00. Still for that read-out and setting: the value for `FC(F)(F)c1cccc(N2CCN(c3cncc(-c4ccc5ccccc5c4)n3)CC2)c1` [compound 252, 6′-Naphthalen-2-yl-4-(3-trifluoromethyl-phenyl)-3,4,5,6-tetrahydro-2H-[1,2′]bipyrazinyl] was 4.00 to 5.00.

`Fc1ccc(-c2cncc(N3CCN(c4cccc(C(F)(F)F)c4)CC3)n2)cc1Cl` [compound 157, 6′-(3-Chloro-4-fluoro-phenyl)-4-(3-trifluoromethyl-phenyl)-3,4,5,6-tetrahydro-2H-[1,2′]bipyrazinyl]: the pIC50 under setting [2] is 4.00 to 5.00. On to `Cc1ccc(-c2cncc(N3CCN(c4ccc(F)cc4F)CC3)n2)cc1` [compound 142, 4-(2,4-Difluoro-phenyl)-6′-p-tolyl-3,4,5,6-tetrahydro-2H-[1,2′]bipyrazinyl], for which the pIC50 under setting [2] was 4.00 to 5.00.

As to `NC(=O)c1ccc(-c2cncc(N3CCN(C(=O)c4ccco4)CC3)n2)cc1` [compound 34, 4-[4-(Furan-2-carbonyl)-3,4,5,6-tetrahydro-2H-[1,2′]bipyrazinyl-6′-yl]-benzamide], under setting [2], the pIC50 was over 6.00. `FC(F)(F)c1cccc(N2CCN(c3cncc(-c4ccoc4)n3)CC2)c1` [compound 255, 6′-Furan-3-yl-4-(3-trifluoromethyl-phenyl)-3,4,5,6-tetrahydro-2H-[1,2′]bipyrazinyl]: under setting [1], the pIC50 is 4.00 to 5.00. In the case of `CC(=O)c1ccc(N2CCN(c3cncc(-c4cccc(C)c4)n3)CC2)cc1` [compound 147, 1-[4-(6′-m-Tolyl-2,3,5,6-tetrahydro-[1,2′]bipyrazinyl-4-yl)-phenyl]-ethanone], the pIC50 under setting [2] was 4.00 to 5.00.

On to `c1ccc2c(-c3cncc(N4CCN(c5cnccn5)CC4)n3)csc2c1` [compound 332, 6-Benzo[b]thiophen-3-yl-2′,3′,5′,6′-tetrahydro-[2,1′;4′,2″]terpyrazine], for which the pIC50 under setting [1] is over 6.00.

Turning to `COc1ccc(-c2cncc(N3CCN(c4ccc(F)cc4)CC3)n2)cc1OC` [compound 139, 6′-(3,4-Dimethoxy-phenyl)-4-(4-fluoro-phenyl)-3,4,5,6-tetrahydro-2H-[1,2′]bipyrazinyl], the pIC50 under setting [2] is 5.00 to 6.00.

Regarding `Fc1ccccc1N1CCN(c2cncc(-c3csc4ccccc34)n2)CC1` [compound 251, 6′-Benzo[b]thiophen-3-yl-4-(2-fluoro-phenyl)-3,4,5,6-tetrahydro-2H-[1,2′]bipyrazinyl], the pIC50 under setting [1] was 4.00 to 5.00. In the case of `OCc1ccccc1-c1cncc(N2CCN(c3ccc(F)cc3F)CC2)n1` [compound 202, {2-[4-(2,4-Difluoro-phenyl)-3,4,5,6-tetrahydro-2H-[1,2′]bipyrazinyl-6′-yl]-phenyl}-methanol], under setting [1], the pIC50 was 4.00 to 5.00.

As for `CC(=O)c1ccc(N2CCN(c3cncc(-c4ccccc4C(C)=O)n3)CC2)cc1` [compound 146, 1-{2-[4-(4-Acetyl-phenyl)-3,4,5,6-tetrahydro-2H-[1,2′]bipyrazinyl-6′-yl]-phenyl}-ethanone], the pIC50 under setting [2] was 4.00 to 5.00. On the same count and under the same terms, the value for `Fc1cc(-c2cncc(N3CCN(c4ccccc4F)CC3)n2)ccc1-c1ccccc1` [compound 128, 6′-(2-Fluoro-biphenyl-4-yl)-4-(2-fluoro-phenyl)-3,4,5,6-tetrahydro-2H-[1,2′]bipyrazinyl] was 4.00 to 5.00.

`CC(=O)c1ccc(N2CCN(c3cncc(-c4ccc(C(C)(C)C)cc4)n3)CC2)cc1` [compound 204, 1-{4-[6′-(4-tert-Butyl-phenyl)-2,3,5,6-tetrahydro-[1,2′]bipyrazinyl-4-yl]-phenyl}-ethanone]: the pIC50 under setting [1] was 4.00 to 5.00. Take `COc1cccc(N2CCN(c3cncc(-c4ccc(C)cc4)n3)CC2)c1` [compound 284, 4-(3-Methoxy-phenyl)-6′-p-tolyl-3,4,5,6-tetrahydro-2H-[1,2′]bipyrazinyl]: the pIC50 under setting [1] was 5.00 to 6.00. Same read-out and setting: the value for `CSc1ccc(-c2cncc(N3CCN(c4cnccn4)CC3)n2)cc1` [compound 314, 6-(4-Methylsulfanyl-phenyl)-2′,3′,5′,6′-tetrahydro-[2,1′;4′,2″]terpyrazine] was 5.00 to 6.00. The same measure, in the same setting: the value for `COc1cccc(-c2cncc(N3CCN(c4ccc(Cl)cc4)CC3)n2)c1` [compound 302, 4-(4-Chloro-phenyl)-6′-(3-methoxy-phenyl)-3,4,5,6-tetrahydro-2H-[1,2′]bipyrazinyl] was 5.00 to 6.00. The same measure, in the same setting: the value for `Fc1ccc(N2CCN(c3cncc(-c4csc5ccccc45)n3)CC2)cc1` [compound 235, 6′-Benzo[b]thiophen-3-yl-4-(4-fluoro-phenyl)-3,4,5,6-tetrahydro-2H-[1,2′]bipyrazinyl] was 5.00 to 6.00; that for `CN(C)c1ccc(-c2cncc(N3CCN(c4ccc(Cl)c(Cl)c4)CC3)n2)cc1` [compound 357, {4-[4-(3,4-Dichloro-phenyl)-3,4,5,6-tetrahydro-2H-[1,2′]bipyrazinyl-6′-yl]-phenyl}-dimethyl-amine] was 4.00 to 5.00. Turning to `Cc1cccc(N2CCN(c3cncc(-c4csc5ccccc45)n3)CC2C)c1` (stereo not drawn) [compound 279, 6′-Benzo[b]thiophen-3-yl-3-methyl-4-m-tolyl-3,4,5,6-tetrahydro-2H-[1,2′]bipyrazinyl], the pIC50 under setting [1] is 4.00 to 5.00. For `Clc1ccc(-c2cncc(NCc3ccccc3)n2)cc1` [compound 27, Benzyl-[6-(4-chloro-phenyl)-pyrazin-2-yl]-amine], the pIC50 under setting [2] is 4.00 to 5.00.

For `CC(=O)c1cccc(-c2cncc(N3CCN(c4cccc(C)c4C)CC3)n2)c1` [compound 297, 1-{3-[4-(2,3-Dimethyl-phenyl)-3,4,5,6-tetrahydro-2H-[1,2′]bipyrazinyl-6′-yl]-phenyl}-ethanone], under setting [1], the pIC50 is 4.00 to 5.00. As to `OCc1ccc(-c2cncc(N3CCN(c4cccc(Cl)c4)CC3)n2)cc1` [compound 83, {4-[4-(3-Chloro-phenyl)-3,4,5,6-tetrahydro-2H-[1,2′]bipyrazinyl-6′-yl]-phenyl}-methanol], the pIC50 under setting [2] was 5.00 to 6.00. For the compound `CSc1ccc(-c2cncc(N3CCN(c4ccc(F)cc4F)CC3)n2)cc1` [compound 274, 4-(2,4-Difluoro-phenyl)-6′-(4-methylsulfanyl-phenyl)-3,4,5,6-tetrahydro-2H-[1,2′]bipyrazinyl], the pIC50 under setting [1] is 5.00 to 6.00. With `c1cncc(-c2cncc(N3CCN(c4ccncc4)CC3)n2)c1` [compound 54, 4-Pyridin-4-yl-6′-pyridin-3-yl-3,4,5,6-tetrahydro-2H-[1,2′]bipyrazinyl], under setting [2], the pIC50 is 4.00 to 5.00. Consider `N#Cc1ccccc1N1CCN(c2cncc(-c3ccc(Cl)cc3)n2)CC1` [compound 42, 2-[6′-(4-Chloro-phenyl)-2,3,5,6-tetrahydro-[1,2′]bipyrazinyl-4-yl]-benzonitrile], for which the pIC50 under setting [2] was 5.00 to 6.00. In the case of `CC(=O)c1ccc(N2CCN(c3cncc(-c4cccc(F)c4)n3)CC2)cc1` [compound 214, 1-{4-[6′-(3-Fluoro-phenyl)-2,3,5,6-tetrahydro-[1,2′]bipyrazinyl-4-yl]-phenyl}-ethanone], the pIC50 under setting [1] is 4.00 to 5.00.

In the case of `CC(=O)c1cccc(-c2cncc(N3CCN(c4ccncc4)CC3)n2)c1` [compound 132, 1-[3-(4-Pyridin-4-yl-3,4,5,6-tetrahydro-2H-[1,2′]bipyrazinyl-6′-yl)-phenyl]-ethanone], the pIC50 under setting [2] was 5.00 to 6.00. On the same count and under the same terms, the value for `CN(C)c1cccc(-c2cncc(N3CCN(c4ccncc4)CC3)n2)c1` [compound 16, Dimethyl-[3-(4-pyridin-4-yl-3,4,5,6-tetrahydro-2H-[1,2′]bipyrazinyl-6′-yl)-phenyl]-amine] was 4.00 to 5.00. For `c1ccc2c(-c3cncc(N4CCN(c5ccncc5)CC4)n3)cccc2c1` [compound 221, 6′-Naphthalen-1-yl-4-pyridin-4-yl-3,4,5,6-tetrahydro-2H-[1,2′]bipyrazinyl], the pIC50 under setting [1] is 5.00 to 6.00.

For the origin of these results see patent US20080194574A1, “Pyrazine Derivatives As Effective Compounds Against Infectious Diseases” (AXXIMA PHARMACEUTICALS AG, priority 2003, published 2008).
